Patent US20080317723A1, “LYMPHATIC ENDOTHELIAL CELLS MATERIALS AND METHODS” (VEGENICS LIMITED, priority 2001, published 2008)

B1: VEGF-C156S: VEGFR-3 specific mutant form of VEGF-C, cysteine 156 changed into serine; recombinant human (Thr103 to Ile225) (protein, UniProt P49767 103-225, looked up, variant C156S)
chain: TEETIKFAAAHYNTEILKSIDNEWRKTQCMPREVCIDVGKEFGVATNTFFKPPSVSVYRCGGCCNSEGLQCMNTSTSYLSKTLFEITVPLSQGPKPVTISFANHTSCRCMSKLDVYRQVHSII

Tests used:
Type in all cases: cell-based, human
[1] = system: VEGFR-2/EpoR; assay: Ba/F3 bioassay, viability (MTT) of VEGFR-2/EpoR cells; settings: FIG. 1B
Method: FIG. 1A-FIG. 1C. Analysis of the receptor-specificities of different VEGFs using the Ba/F3 bioassay. Measurement of the viability of Ba/F3 cells expressing the chimeric receptors VEGFR-1/EpoR (FIG. 1A), VEGFR-2/EpoR (FIG. 1B) or VEGFR-3/EpoR (FIG. 1C) in the presence of different VEGFs at indicated concentrations. Cell viability was determined using the MTT assay. Data represent the mean values from triplicate assays (mean±s.d.). FIG. 1D-FIG. 1G. Biosensor analysis of the interaction of VEGF-C (FIG. 1D, FIG. 1E) and VEGF-C156S (FIG. 1F, FIG. 1G) with VEGFR-3 (FIG. 1D, FIG. 1F) and VEGFR-2 (FIG. 1E, FIG. 1G). Chimeric receptor proteins were immobilized onto a carboxymethylated dextran surface. Growth factors were injected over the surface at a flow rate of 20 μl/min at the indicated concentrations. The sensorgrams shown have been subtracted with the corresponding signal obtained when the same sample was passed over a blank control channel.
Bioassay for VEGFR stimulation. […]
VEGF is an endothelial cell mitogen which has been also shown to protect endothelial cells from starvation and TNF-a induced apoptosis via activation of VEGFR-2 (Gerber et al, J. Biol. Chem., 273:30336-30343, 1998; Spyridopoulos et al., J. Mol. Cell. Cardiol., 29:1321-1330, 1997). […] The specificities of the growth factors used were determined using a cell survival bioassay. […]

[2] = system: HMVE cells; assay: Serum starvation-induced apoptosis, cytoplasmic histone-associated DNA fragments (ELISA), non-sorted HMVE cells; settings: non-sorted microvascular endothelial cells, serum-free 24 h, FIG. 2A
From the text: FIG. 2A-FIG. 2B. VEGFR-2 and VEGFR-3, but not VEGFR-1 activating ligands inhibit apoptosis of serum-deprived HMVE cells. Measurement of the cytoplasmic histone-associated DNA fragments (mono- and oligonucleosomes) in serum-starved HMVE cells consisting of two cell populations of blood vascular and lymphatic endothelial cells (FIG. 2A) or in the isolated cell populations after magnetic cell sorting using VEGFR-3 antibodies (FIG. 2B). The enrichment factor of cytoplasmic oligonucleosomes in the apoptotic cells grown for 24 h in serum-free medium (BSA) was chosen as 100 (%). Data represent mean values from three independent experiments (mean±s.d.). […] Analysis of endothelial cell apoptosis. For the apoptosis assay, 70,000 cells per well were seeded into 24-well plates. Treatments were done in duplicates and apoptosis was detected by measuring cytoplasmic histone-associated DNA fragments using the death detection ELISA PLUS kit (Roche, Indianapolis, Ind.). […] Annexin-V-FLUOS (Roche, Indianapolis, Ind.) was used to detect phosphatidylserine on the apoptotic cells by fluorescence microscopy according to the instructions of the manufacturer. The simultaneous staining with propidium iodide (1 μg/ml) was used for discriminating possible necrotic cells.

[3] = system: HMVE cells; assay: Boyden chamber cell migration assay; settings: 6 h, VEGF 10 ng/ml, VEGF-C 500 ng/ml, VEGF-D 500 ng/ml, VEGF-C156S 3 μg/ml
Method: FIG. 5. VEGFR-3 mediates endothelial cell migration. The migration of HMVE cells in the presence of different VEGFs in a Boyden chamber assay. […] Data represent mean values from three independent experiments (mean±s.d.). The growth factor concentrations used are: VEGF 10 ng/ml, VEGF-C 500 ng/ml, VEGF-D 500 ng/ml and VEGF-C156S 3 μg/ml.
Cell migration assay. Migration assays were performed in a 48-well chemotaxis Boyden chamber (Neuroprobe Inc.). Eight micron Nucleopore polycarbonate filters (Corning) were coated with 100 μg/ml of collagen type I (Upstate Biotechnology) overnight at +4° C. and air dried. The filters were placed over the lower chamber wells containing the growth factors in serum-free growth medium supplemented with 0.2% BSA. For blocking experiments, VEGF and VEGF-C156S were preincubated with a ten-fold molar excess of soluble human VEGFR-3 for 30 min. HMVE cells were suspended in the growth medium and 10,000 cells in 50 μl were added to each well in the upper chamber. The cells were allowed to migrate for 6 h at 37° C. after which the filter was fixed with cold methanol and stained with hematoxylin (Meyer). Non-migrated cells on the upper surface of the filter were removed by scraping with a cotton swab and the number of migrated cells was counted. The assays were run in quadruplicate and repeated with three different batches of HMVECs.

Molecule	survival of VEGFR-2/EpoR expressing cells [1]	protection from starvation induced DNA degradation (cytoplasmic histone-associated DNA fragments) [2]	stimulation of HMVE cell migration [3]
VEGF	able to support the survival of the VEGFR-2/EpoR expressing cells	able to protect microvascular endothelial cells from starvation induced DNA degradation	ten-fold stimulation of cell migration
B1	did not affect the survival of these cells	able to protect microvascular endothelial cells from starvation induced DNA degradation	induced the migration of HMVE cells
